The values that follow come from ChEMBL document CHEMBL3867478, “ProTides of BVdU as potential anticancer agents upon efficient intracellular delivery of their activated metabolites” (Bioorg Med Chem Lett, 2016).

The nature of this data set: Drug level in pH 7.6 trizma buffer treated with 5 mg (E)-5-(2-bromovinyl)-2'-deoxyuridine-5'-(1-naphthyl(methoxy-L-tryptophanyl)-phosphate assessed as carboxypeptidase Y (unknown origin)-mediated compound formation measured every 7 mins for 14 hrs by [31P]-NMR spectroscopic analysis. The data set is classed as ADME. Particulars: pH 7.6, 14 h.

`O=C(O)C(Cc1c[nH]c2ccccc12)NP(=O)(OC[C@H]1O[C@@H](n2cc(/C=C/Br)c(=O)[nH]c2=O)C[C@@H]1O)Oc1cccc2ccccc12` (stereo partly drawn): the Drug metabolism entry is given as “Metabolite_Detected”.

In the case of `O=C1OP(=O)(OC[C@H]2O[C@@H](n3cc(/C=C/Br)c(=O)[nH]c3=O)C[C@@H]2O)NC1Cc1c[nH]c2ccccc12` (stereo partly drawn), the Drug metabolism result was “Metabolite_Detected”.

Consider `O=C(O)C(Cc1c[nH]c2ccccc12)NP(=O)(O)OC[C@H]1O[C@@H](n2cc(/C=C/Br)c(=O)[nH]c2=O)C[C@@H]1O` (stereo partly drawn), for which the Drug metabolism result is listed as “Metabolite_Detected”.
